# From PubChem BioAssay AID256 (DTP/NCI, 2004)
# Values joined by “and” are separate entries in the source; they are usually repeats but may differ in a detail not shown here. Identical values can stand only once. Toxic doses and inconclusive results are not listed.
# System: CD2F1 mice, L1210 leukemia ip, survival T/C
# Assay: NCI In Vivo Anticancer Drug Screen. Data for tumor model L1210 Leukemia (intraperitoneal) in CD2F1 (CDF1) mice
# Conditions: higher = longer survival
# Procedure, shortened: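 In this screen, transplantable tumors were grown in mice given either the compound or its vehicle. Results were expressed as the treated measurement relative to the control measurement.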
# [1] = endpoint: mean survival time, dose: 100.0 mg/kg/injection, schedule: Q01DX001 (ip), vehicle: saline
# [2] = endpoint: mean survival time, dose: 200.0 mg/kg/injection, schedule: Q01DX001 (ip), vehicle: saline
# [3] = endpoint: mean survival time, dose: 50.0 mg/kg/injection, schedule: Q01DX009 (ip), vehicle: saline with Tween-80
# [4] = endpoint: mean survival time, dose: 100.0 mg/kg/injection, schedule: Q01DX009 (ip), vehicle: saline with Tween-80
# [5] = endpoint: mean survival time, dose: 200.0 mg/kg/injection, schedule: Q01DX009 (ip), vehicle: saline with Tween-80
# [6] = endpoint: mean survival time, dose: 400.0 mg/kg/injection, schedule: Q01DX009 (ip), vehicle: saline with Tween-80
# [7] = endpoint: mean survival time, dose: 200.0 mg/kg/injection, schedule: Q04DX003 (ip), vehicle: saline with Tween-80
# [8] = endpoint: mean survival time, dose: 100.0 mg/kg/injection, schedule: Q04DX003 (ip), vehicle: saline with Tween-80
# [9] = endpoint: mean survival time, dose: 400.0 mg/kg/injection, schedule: Q04DX003 (ip), vehicle: saline with Tween-80
compound,measurement,setting,value
O=C(COc1cccc(Cl)c1)NCc1ccccc1NC(=O)Nc1cccc(S(=O)(=O)F)c1,T/C,"endpoint: mean survival time, dose: 100.0 mg/kg/injection, schedule: Q01DX001 (ip), vehicle: saline with Tween-80",88 % of control
same,T/C,"endpoint: mean survival time, dose: 200.0 mg/kg/injection, schedule: Q01DX001 (ip), vehicle: saline with Tween-80",89 % of control
same,T/C,"endpoint: mean survival time, dose: 400.0 mg/kg/injection, schedule: Q01DX001 (ip), vehicle: saline with Tween-80",94 % of control
C=CC1C[N+]2(SS(=O)(=O)O)CCC1CC2C(O)c1ccnc2ccc(OC)cc12 (stereo not drawn),T/C,"endpoint: mean survival time, dose: 75.0 mg/kg/injection, schedule: Q04DX003 (ip), vehicle: saline",100 % of control
same,T/C,"endpoint: mean survival time, dose: 150.0 mg/kg/injection, schedule: Q04DX003 (ip), vehicle: saline",95 % of control
O=C(O)c1cc(-c2ccc(Cl)cc2)nc2c1ccc1ccccc12,T/C,[1],102 % of control
same,T/C,[2],97 % of control
Cc1ccc(S(=O)(=O)SCc2ccccc2)cc1,T/C,"endpoint: mean survival time, dose: 100.0 mg/kg/injection, schedule: Q01DX009 (ip), vehicle: other",107 % of control
same,T/C,"endpoint: mean survival time, dose: 200.0 mg/kg/injection, schedule: Q01DX009 (ip), vehicle: other",96 % of control
O=CC1C(=O)Nc2ccccc21 (stereo not drawn),T/C,[3],96 % of control
same,T/C,[4],96 % of control
same,T/C,[5],104 % of control
CCC(=O)c1ccc(NC(=O)Nc2ncccn2)cc1,T/C,"endpoint: mean survival time, dose: 50.0 mg/kg/injection, schedule: Q01DX009 (ip), vehicle: Klucel (hydroxypropylcellulose) (HPC)",91 % of control
same,T/C,"endpoint: mean survival time, dose: 100.0 mg/kg/injection, schedule: Q01DX009 (ip), vehicle: Klucel (hydroxypropylcellulose) (HPC)",94 % of control
CC1CC(C)SC(C(C)(C)C)S1 (stereo not drawn),T/C,"endpoint: mean survival time, dose: 12.5 mg/kg/injection, schedule: Q04DX002 (ip), vehicle: saline",105 % of control
same,T/C,"endpoint: mean survival time, dose: 25.0 mg/kg/injection, schedule: Q04DX002 (ip), vehicle: saline",97 % of control
same,T/C,"endpoint: mean survival time, dose: 50.0 mg/kg/injection, schedule: Q04DX002 (ip), vehicle: saline",102 % of control
CC(C)C(=O)OC1(C(C)c2ccccc2)C(=O)NC(=O)NC1=O (stereo not drawn),T/C,"endpoint: mean survival time, dose: 6.25 mg/kg/injection, schedule: Q01DX009 (ip), vehicle: saline with Tween-80",92 % of control
same,T/C,"endpoint: mean survival time, dose: 12.5 mg/kg/injection, schedule: Q01DX009 (ip), vehicle: saline with Tween-80",97 % of control
same,T/C,"endpoint: mean survival time, dose: 25.0 mg/kg/injection, schedule: Q04DX002 (ip), vehicle: saline with Tween-80",91 % of control
O=C(O)c1cc(N2CCCCC2)ccn1,T/C,[1],94 % of control
same,T/C,[2],100 % of control
COC(=O)C1=C(C)NC(=O)NC1c1ccccc1 (stereo not drawn),T/C,[4],95 % of control
same,T/C,[5],97 % of control
same,T/C,[6],97 % of control
Nc1nc(Cl)c2[nH]cnc2n1,T/C,"endpoint: mean survival time, dose: 13.3 mg/kg/injection, schedule: Q01DX009 (ip), vehicle: saline with Tween-80",153 % of control
same,T/C,"endpoint: mean survival time, dose: 44.0 mg/kg/injection, schedule: Q01DX009 (ip), vehicle: saline with Tween-80",151 % of control and 154 % of control
same,T/C,"endpoint: mean survival time, dose: 60.0 mg/kg/injection, schedule: Q04DX003 (ip), vehicle: saline with Tween-80",181 % of control
same,T/C,"endpoint: mean survival time, dose: 66.0 mg/kg/injection, schedule: Q01DX009 (ip), vehicle: saline with Tween-80",100 % of control
same,T/C,"endpoint: mean survival time, dose: 75.0 mg/kg/injection, schedule: Q04DX003 (ip), vehicle: saline with Tween-80",160 % of control
same,T/C,"endpoint: mean survival time, dose: 88.0 mg/kg/injection, schedule: Q01DX009 (ip), vehicle: saline with Tween-80",116 % of control
same,T/C,[4],111 % of control
same,T/C,"endpoint: mean survival time, dose: 132.0 mg/kg/injection, schedule: Q01DX009 (ip), vehicle: saline with Tween-80",113 % of control
same,T/C,"endpoint: mean survival time, dose: 150.0 mg/kg/injection, schedule: Q01DX009 (ip), vehicle: saline with Tween-80",86 % of control
same,T/C,"endpoint: mean survival time, dose: 150.0 mg/kg/injection, schedule: Q04DX003 (ip), vehicle: saline with Tween-80",156 % of control and 168 % of control
same,T/C,[7],122 % of control
same,T/C,"endpoint: mean survival time, dose: 300.0 mg/kg/injection, schedule: Q01DX009 (ip), vehicle: saline with Tween-80",111 % of control
OCC1OC(c2cnn(-c3ccccc3)n2)C(O)C1O (stereo not drawn),T/C,"endpoint: median survival time, dose: 12.5 mg/kg/injection, schedule: Q01DX005 (ip), vehicle: water",103 % of control
same,T/C,"endpoint: median survival time, dose: 25.0 mg/kg/injection, schedule: Q01DX005 (ip), vehicle: water",103 % of control
same,T/C,"endpoint: median survival time, dose: 50.0 mg/kg/injection, schedule: Q01DX005 (ip), vehicle: water",102 % of control
same,T/C,"endpoint: median survival time, dose: 100.0 mg/kg/injection, schedule: Q01DX005 (ip), vehicle: water",104 % of control
same,T/C,"endpoint: median survival time, dose: 200.0 mg/kg/injection, schedule: Q01DX005 (ip), vehicle: water",102 % of control
CC1OC1C(=O)C1(O)C(C)C(O)C23OC2(C(O)c2c(O)cccc2C3=O)C1O (stereo not drawn),T/C,"endpoint: mean survival time, dose: 0.5 mg/kg/injection, schedule: Q01DX009 (ip), vehicle: Klucel (hydroxypropylcellulose) (HPC)",98 % of control and 101 % of control
same,T/C,"endpoint: mean survival time, dose: 1.0 mg/kg/injection, schedule: Q01DX009 (ip), vehicle: Klucel (hydroxypropylcellulose) (HPC)",98 % of control and 102 % of control (2×)
same,T/C,"endpoint: mean survival time, dose: 2.0 mg/kg/injection, schedule: Q01DX009 (ip), vehicle: Klucel (hydroxypropylcellulose) (HPC)",104 % of control and 105 % of control and 107 % of control
same,T/C,"endpoint: mean survival time, dose: 4.0 mg/kg/injection, schedule: Q01DX009 (ip), vehicle: Klucel (hydroxypropylcellulose) (HPC)",114 % of control and 102 % of control and 103 % of control
same,T/C,"endpoint: mean survival time, dose: 8.0 mg/kg/injection, schedule: Q01DX009 (ip), vehicle: Klucel (hydroxypropylcellulose) (HPC)",120 % of control and 104 % of control and 109 % of control
same,T/C,"endpoint: mean survival time, dose: 16.0 mg/kg/injection, schedule: Q01DX009 (ip), vehicle: Klucel (hydroxypropylcellulose) (HPC)",104 % of control
COc1nc(NC2OCC(O)C(O)C2O)c(I)c(=O)n1C (stereo not drawn),T/C,"endpoint: median survival time, dose: 12.5 mg/kg/injection, schedule: Q01DX005 (ip), vehicle: saline with Tween-80",101 % of control
same,T/C,"endpoint: median survival time, dose: 25.0 mg/kg/injection, schedule: Q01DX005 (ip), vehicle: saline with Tween-80",100 % of control
same,T/C,"endpoint: median survival time, dose: 50.0 mg/kg/injection, schedule: Q01DX005 (ip), vehicle: saline with Tween-80",100 % of control
same,T/C,"endpoint: median survival time, dose: 100.0 mg/kg/injection, schedule: Q01DX005 (ip), vehicle: saline with Tween-80",101 % of control
same,T/C,"endpoint: median survival time, dose: 200.0 mg/kg/injection, schedule: Q01DX005 (ip), vehicle: saline with Tween-80",100 % of control
CC(C)c1cc(C(=O)O)c(O)c(C(C)C)c1.CC(C)c1cc(C(=O)O)c(O)c(C(C)C)c1.[Cu],T/C,"endpoint: median survival time, dose: 6.25 mg/kg/injection, schedule: Q01DX009 (ip), vehicle: saline with Tween-80",100 % of control
same,T/C,"endpoint: median survival time, dose: 12.5 mg/kg/injection, schedule: Q01DX009 (ip), vehicle: saline with Tween-80",96 % of control
same,T/C,"endpoint: median survival time, dose: 25.0 mg/kg/injection, schedule: Q01DX009 (ip), vehicle: saline with Tween-80",96 % of control
Nc1c(C(=O)O)ncn1C1OC(CO)C(O)C1O (stereo not drawn),T/C,"endpoint: median survival time, dose: 7.88 mg/kg/injection, schedule: Q01DX005 (ip), vehicle: saline",101 % of control
same,T/C,"endpoint: median survival time, dose: 15.75 mg/kg/injection, schedule: Q01DX005 (ip), vehicle: saline",104 % of control
same,T/C,"endpoint: median survival time, dose: 31.5 mg/kg/injection, schedule: Q01DX005 (ip), vehicle: saline",104 % of control
same,T/C,"endpoint: median survival time, dose: 63.0 mg/kg/injection, schedule: Q01DX005 (ip), vehicle: saline",103 % of control
same,T/C,"endpoint: median survival time, dose: 126.0 mg/kg/injection, schedule: Q01DX005 (ip), vehicle: saline",92 % of control
CC(=O)Nc1cc(Cl)ccc1C(=O)O,T/C,[3],96 % of control
same,T/C,[4],98 % of control
same,T/C,[5],100 % of control
CC1(C(=O)Sc2ccccc2)OC1(C)c1ccccc1 (stereo not drawn),T/C,"endpoint: mean survival time, dose: 100.0 mg/kg/injection, schedule: Q01DX001 (ip), vehicle: Klucel (hydroxypropylcellulose) (HPC)",97 % of control
same,T/C,"endpoint: mean survival time, dose: 200.0 mg/kg/injection, schedule: Q01DX001 (ip), vehicle: Klucel (hydroxypropylcellulose) (HPC)",108 % of control
same,T/C,"endpoint: mean survival time, dose: 400.0 mg/kg/injection, schedule: Q01DX001 (ip), vehicle: Klucel (hydroxypropylcellulose) (HPC)",97 % of control
CCOC(=O)c1sc(N)c(C(=O)OCC)c1C,T/C,[4],98 % of control
same,T/C,[8],95 % of control
same,T/C,[5],93 % of control
same,T/C,[7],95 % of control
same,T/C,[6],91 % of control
same,T/C,[9],101 % of control
CCOC(=O)c1cc(Cl)cc(Cl)c1N=NN(C)C,T/C,"endpoint: mean survival time, dose: 25.0 mg/kg/injection, schedule: Q01DX009 (ip), vehicle: saline",93 % of control
same,T/C,"endpoint: mean survival time, dose: 50.0 mg/kg/injection, schedule: Q01DX009 (ip), vehicle: saline",93 % of control
same,T/C,"endpoint: mean survival time, dose: 100.0 mg/kg/injection, schedule: Q01DX009 (ip), vehicle: saline",100 % of control
same,T/C,"endpoint: mean survival time, dose: 200.0 mg/kg/injection, schedule: Q01DX009 (ip), vehicle: saline",97 % of control
O=[N+]([O-])c1ccc(Sc2ccc([N+](=O)[O-])cc2)cc1,T/C,[8],88 % of control
same,T/C,[7],92 % of control
Cc1[nH]c(=S)[nH]c(=O)c1CCS,T/C,[1],104 % of control
same,T/C,[2],101 % of control
same,T/C,"endpoint: mean survival time, dose: 400.0 mg/kg/injection, schedule: Q01DX001 (ip), vehicle: saline",98 % of control
O=C(c1ccc2ccccc2c1O)N1CCCCC1,T/C,[8],101 % of control
same,T/C,[7],103 % of control
same,T/C,[9],101 % of control
COc1ccc(C(=O)CC(C#N)c2ccc3c(c2)OCO3)cc1OC (stereo not drawn),T/C,[8],93 % of control
same,T/C,[7],91 % of control
same,T/C,[9],93 % of control
